Reference: ChEMBL document CHEMBL2086370 (J Med Chem, 2012)

Key:
[1] = molecular target: Kappa-type opioid receptor (Homo sapiens, UniProt P41145); assay: biochemical
Description: Displacement of [3H]diprenorphine from human cloned kappa type opioid receptor expressed in CHO cell membranes by scintillation counter

[2] = molecular target: Delta-type opioid receptor (Homo sapiens, UniProt P41143); assay: biochemical
Description: Displacement of [3H]diprenorphine from human cloned delta type opioid receptor expressed in CHO cell membranes by scintillation counter

Mu-type opioid receptor = Mu-type opioid receptor (Homo sapiens, UniProt P35372); assay: Displacement of [3H]diprenorphine from human cloned mu type opioid receptor expressed in CHO cell membranes by scintillation counter
[3] = Lipophilicity, log D of the compound at pH 7.4 by potentiometric method; type: physicochemical; details: buffer
Brain [4] = assay: Drug uptake in Harlan Sprague-Dawley rat brain at 3 ug/kg, iv up to 60 mins by LC-MS/MS analysis; details: in vivo, 1 h
Brain [5] = assay: Drug uptake in Harlan Sprague-Dawley rat brain at 3 ug/kg, iv after 10 mins by LC-MS/MS analysis; type: ADME, organism-based; details: in vivo, 0.003 mg/kg
Rattus norvegicus = assay: In vivo receptor occupancy of NOP receptor in po dosed Harlan Sprague-Dawley rat hypothalamus co-administered with unlabeled tracer compound at 3 ug/kg, iv; type: functional

Delta-type opioid receptor, sequence (P41143 whole entry): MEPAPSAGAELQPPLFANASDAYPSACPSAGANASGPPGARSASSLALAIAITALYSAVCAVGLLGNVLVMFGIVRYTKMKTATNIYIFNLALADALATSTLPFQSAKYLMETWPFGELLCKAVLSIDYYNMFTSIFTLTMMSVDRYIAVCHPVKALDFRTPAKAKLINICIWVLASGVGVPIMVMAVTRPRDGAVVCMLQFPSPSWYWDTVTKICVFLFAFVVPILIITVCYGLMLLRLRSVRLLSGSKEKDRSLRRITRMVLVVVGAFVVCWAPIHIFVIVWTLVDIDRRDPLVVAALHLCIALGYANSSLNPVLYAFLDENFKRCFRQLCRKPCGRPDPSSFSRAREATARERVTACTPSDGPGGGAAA
Mu-type opioid receptor, sequence (P35372 whole entry): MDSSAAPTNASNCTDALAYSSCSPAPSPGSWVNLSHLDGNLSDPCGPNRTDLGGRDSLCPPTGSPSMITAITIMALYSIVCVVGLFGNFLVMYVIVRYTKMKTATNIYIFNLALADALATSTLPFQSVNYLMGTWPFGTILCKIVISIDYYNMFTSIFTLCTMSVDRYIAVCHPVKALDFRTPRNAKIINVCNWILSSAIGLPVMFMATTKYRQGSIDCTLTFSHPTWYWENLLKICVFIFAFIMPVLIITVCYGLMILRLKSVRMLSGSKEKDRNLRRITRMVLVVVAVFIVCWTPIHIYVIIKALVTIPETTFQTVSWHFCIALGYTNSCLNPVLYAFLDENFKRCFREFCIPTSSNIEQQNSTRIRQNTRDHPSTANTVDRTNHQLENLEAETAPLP
Kappa-type opioid receptor, sequence (P41145 whole entry): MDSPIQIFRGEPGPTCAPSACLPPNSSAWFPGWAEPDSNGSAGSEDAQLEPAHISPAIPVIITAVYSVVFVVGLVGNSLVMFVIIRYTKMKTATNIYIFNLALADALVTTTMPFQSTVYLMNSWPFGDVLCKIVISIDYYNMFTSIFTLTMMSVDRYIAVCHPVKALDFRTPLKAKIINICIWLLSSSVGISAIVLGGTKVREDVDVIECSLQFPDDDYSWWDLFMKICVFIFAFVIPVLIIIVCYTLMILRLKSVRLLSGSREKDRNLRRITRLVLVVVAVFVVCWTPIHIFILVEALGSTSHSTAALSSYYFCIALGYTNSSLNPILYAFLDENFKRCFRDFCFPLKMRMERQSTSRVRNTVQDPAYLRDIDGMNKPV

Structure (SMILES)	Ki [1] [nM]	Ki [2] [nM]	Ki (Mu-type opioid receptor) [nM]	logD ([3]; read-out: logD)	SUV (Brain [4]) [%]	logD [3]	SUV (Brain [5]) [%]	ED50 (Rattus norvegicus) [mg/kg]
CN(C)C(=O)C(Cc1ccccc1Cl)CN1CCC2(CC1)OCCc1cc(Cl)sc12.O=C(O)C(O)C(O)C(=O)O (single isomer, unassigned; (-))	> 400	> 400	> 400	4.61	75	–	–	–
CN(C)C(=O)C(Cc1c(F)cccc1F)CN1CCC2(CC1)OCCc1ccsc12 (racemic)	> 400	> 400	> 400	–	–	–	–	–
NC(=O)C(Cc1ccccc1Cl)CN1CCC2(CC1)OCCc1cc(Cl)sc12 (configuration not stated)	–	–	–	4.58	145	–	–	–
O=C1NCN(c2ccccc2)C12CCN([C@H]1CC[C@@H]3CCCc4cccc1c43)CC2	–	–	–	3.46	–	–	–	–
CN(C)C(=O)C(Cc1ccccc1F)CN1CCC2(CC1)OCCc1cc(Cl)sc12.O=C(O)C(O)C(O)C(=O)O (single isomer, unassigned; (+))	> 400	> 400	> 400	4.27	88	–	–	–
CN(C)C(=O)C(CN1CCC2(CC1)OCCc1ccsc12)Cn1cccn1.O=C(O)C(O)C(O)C(=O)O (single isomer, unassigned; (-))	–	–	–	2.03	15	–	–	–
CNC(=O)C(Cc1ccccc1F)CN1CCC2(CC1)OCCc1cc(Cl)sc12 (single isomer, unassigned; (-))	–	–	–	4.19	46	–	–	–
COC(=O)CN1CN(c2ccccc2)C2(CCN(Cc3cccc4ccccc34)CC2)C1=O	–	–	–	3.85	6	–	–	–
CNC(=O)[C@@H](Cc1ccccc1F)CN1CCC2(CC1)OCCc1cc(F)sc12 [NOP-1A]	–	–	–	–	–	3.5	124	–
CN(C(=O)C(Cc1ccccc1Cl)CN1CCC2(CC1)OCCc1cc(F)sc12)C1CC1 (single isomer, unassigned; (-))	–	–	–	5.52	72	–	–	–
CN(C)C(=O)C(Cc1cscn1)CN1CCC2(CC1)OCc1ccc(F)cc12 (configuration not stated)	> 400	> 400	> 400	2.02	25	–	–	–
CC(C)N(C)C(=O)[C@@H](Cc1ccccc1F)CN1CCC2(CC1)OCCc1cc(F)sc12	–	–	–	4.47	–	–	143	–
CN(C)C(=O)C(CN1CCC2(CC1)OCCc1ccsc12)Cn1cccn1 (racemic)	> 400	> 400	> 400	–	–	–	–	–
CNC(=O)Cn1c(=O)n(C2CCN([C@@H]3Cc4cccc5cccc3c45)CC2)c2ccccc21	–	–	–	–	0	–	–	–
CN(C)C(=O)C(CN1CCC2(CC1)OCCc1cc(F)sc12)Cn1cccn1.O=C(O)C(O)C(O)C(=O)O (single isomer, unassigned; (+))	–	–	–	2.84	65	–	–	–
CN(C)C(=O)C(Cc1ccccc1F)CN1CCC2(CC1)OCCc1ccsc12 (racemic)	> 400	> 400	> 400	–	–	–	–	–
CNC(=O)C(Cc1ccccc1Cl)CN1CCC2(CC1)OCCc1cc(F)sc12 (single isomer, unassigned; (-))	–	–	–	3.9	–	–	154	–
CNC(=O)C(Cc1ccccc1Cl)CN1CCC2(CC1)OCCc1cc(Cl)sc12 (configuration not stated)	–	–	–	3.77	87	–	–	–
CN(C(=O)C(Cc1ccccc1F)CN1CCC2(CC1)OCCc1cc(F)sc12)C1CC1 (single isomer, unassigned; (-))	–	–	–	4.77	82	–	–	–
CN(C)C(=O)C(Cc1ccccc1Cl)CN1CCC2(CC1)OCCc1cc(F)sc12 (single isomer, unassigned; (+))	> 400	> 400	> 400	4.38	–	–	208	–
Cc1cccc2c1CC[C@H](CN1CCC(c3c(Cl)cccc3Cl)CC1)C[C@@H]2O	> 400	> 400	> 400	3.56	130	–	–	6.9
CN(C)C(=O)C(Cc1ccccc1Cl)CN1CCC2(CC1)OCCc1ccsc12 (racemic)	> 400	> 400	> 400	–	–	–	–	–
CN(C)C(=O)[C@@H](Cc1ccccc1F)CN1CCC2(CC1)OCCc1cc(F)sc12.O=C(O)C(O)C(O)C(=O)O	> 400	> 400	> 400	3.89	–	–	154	–
